In paper PMC7830714 (Molecular pharmaceutics, 2017):

Target: T1, ABCG2 (Homo sapiens, UniProt Q9UNQ0)
T1 sequence (Q9UNQ0 1-655): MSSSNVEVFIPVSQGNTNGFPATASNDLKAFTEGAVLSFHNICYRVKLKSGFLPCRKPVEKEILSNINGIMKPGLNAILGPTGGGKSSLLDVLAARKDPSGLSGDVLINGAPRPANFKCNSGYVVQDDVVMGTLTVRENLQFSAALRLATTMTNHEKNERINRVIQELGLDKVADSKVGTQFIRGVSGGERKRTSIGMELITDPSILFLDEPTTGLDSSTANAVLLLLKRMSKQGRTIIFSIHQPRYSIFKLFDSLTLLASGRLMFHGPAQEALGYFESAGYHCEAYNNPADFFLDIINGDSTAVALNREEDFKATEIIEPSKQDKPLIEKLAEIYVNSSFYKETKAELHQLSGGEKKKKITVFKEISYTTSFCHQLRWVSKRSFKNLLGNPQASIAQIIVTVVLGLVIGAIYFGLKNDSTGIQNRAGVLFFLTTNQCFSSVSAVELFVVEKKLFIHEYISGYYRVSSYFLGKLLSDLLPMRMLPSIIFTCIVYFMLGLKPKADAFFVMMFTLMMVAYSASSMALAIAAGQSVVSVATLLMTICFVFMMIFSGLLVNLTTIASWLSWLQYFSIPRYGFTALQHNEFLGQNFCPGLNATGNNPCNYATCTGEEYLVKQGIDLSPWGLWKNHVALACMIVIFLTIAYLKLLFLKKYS
Test: inhibition of […]IAAP photoaffinity labeling in MCF7-FLV1000 membrane vesicles
Assay type: binding

## N#Cc1ccc(-c2c(-c3ncn[nH]3)sc(N3CCOCC3)c2C#N)c(F)c1 [PF-4989216]
  % inhibition of photolabeling at 10 μM: ~ 55
